Measurements taken from patent US8309573B2, “Salt of isoquinoline compound and crystal thereof” (Mitsubishi Tanabe Pharma Corporation, priority 2007, dated 2012).

Legend:
[1] = Chemical stability comparison test (one month preservation, purity by HPLC); assay type: physicochemical
Experimental: The sample after preservation was measured for chemical purity by HPLC. The HPLC conditions are shown below. • apparatus: SHIMADZU Corporation • column: Inertsil ODS-3V (GL Sciences Inc.) inner diameter 4.6 mm and length 150 mm • column oven: 40° C. • detection wavelength: 234 nm • measurement operation: a sample (about 1 mg) was measured in a vial container for HPLC, dissolved in a mixture (1 mL) of water/acetonitrile=1:1, and analyzed under the following conditions. • eluent composition: SOLUTION A 0.1% trifluoroacetic acid/water • SOLUTION B 0.1% trifluoroacetic acid/acetonitrile • gradient: SOLUTION B concentration: 5→100% (60 min) • mobile phase flow rate: 1.0 mL/min • injection volume: 5 μL
An increase rate of related substances after one month preservation was determined from the peak area in the HPLC chromatogram.

physchem = conditions: water, thermodynamic from solid
Experimental: This was subjected to ultrasonication on a water bath for 10 min, and gently shaken in a twin mixer (TM-282, AS ONE Corporation) at room temperature for 1 hr. After shaking, the mixture was centrifuged by a portable ultracentrifuge (10000 rpm×10 min., MC-150, TOMY SEIKO CO., LTD.) and the supernatant was filtered (Millex-LH, Millipore Corporation).

[2] = Hygroscopicity comparison test (adsorption isotherm curve measurement); assay type: physicochemical; conditions: 0-95% RH, 25° C.
Experimental: An adsorption isotherm curve measurement was performed under the following conditions.
apparatus: DVS-1 (sms Ltd., UK)
measurement temperature: 25° C.
measurement operation: a sample was measured in a sample cup, sample weight was measured by successively changing the relative humidity at 50→0→95→0→50% RH.
The smaller weight change due to humidity is an important factor for the management of charge amount of the bulk drug for pharmaceutical products.

[3] = preserved one month at 40° C. 75% RH

Row | Compound | Increase rate of related substances (%) ([1]; preserved one month at 30° C.) | Increase rate of related substances (%) ([1]; preserved one month at 40° C.) | Increase rate of related substances (%) [1, 3] | Increase rate of related substances (%) ([1]; preserved one month at 50° C.) | solubility (physchem) | moisture absorption [2] | moisture absorption, corresponding hydrated water [2]
1 | Cc1cccc2c(=O)[nH]c(CCN3CCC[C@@H]3CO)cc12 [free form, (R)-3-[2-(2-hydroxymethylpyrrolidin-1-yl)ethyl]-5-methyl-2H-isoquinolin-1-one] | +0.16% | +0.18% | +0.28% | +1.30% | ≤ 1 mg/mL | – | –
2 | Cc1cccc2c(=O)[nH]c(CCN3CCC[C@@H]3CO)cc12.Cl.O.O [monohydrochloride dihydrate, (R)-3-[2-(2-hydroxymethylpyrrolidin-1-yl)ethyl]-5-methyl-2H-isoquinolin-1-one monohydrochloride dihydrate] | – | – | – | – | 45 mg/mL | 11 % (w/w) | 2 hydrated water
3 | anhydrous (R)-3-[2-(2-hydroxymethylpyrrolidin-1-yl)ethyl]-5-methyl-2H-isoquinolin-1-one monophosphate | −0.01% | −0.01% | −0.02% | −0.01% | – | 0.5 % (w/w) | 0.1 hydrated water
